Like-named read-outs stand apart in the source and are kept apart here.
Experiments:
KMCH cells [1] = experiment: CCK-8 cell viability assay in KMCH cells; type: cell-based
Text: (§1) FIG. 2 is a set of graphs showing the ability of various molecules to kill KMCH and GS-Li013 cells, which are cholangiocarcinoma cells. The data presented in FIG. 2 is based on in-vtro studies. The y-axis of each graph represents the Cell viability percentage 205 of KMCH and GS-Li013 cells. The x-axis of each graph represents the Log[C]210. [C] refers to the concentration of the molecule tested in uM. IC50 commonly refers to the half maximal inhibitory concentration, and is used to numerically represent the efficacy of various molecules to be effective in their respective tasks. In this case, IC50 means the concentration at which half of the target cells are no longer viable. […] The unit uM is used to represent the IC50 value. uM is the same as micro molar concentration, which is 10^−6 moles/liter, a common concentration unit.
(§2) To obtain the data in FIG. 2, Cell Counting Kit-8 (CCK-8) was used. CCK-8 is commercially available from Dojindo Molecular Technologies, Inc. CCK-8 allows sensitive colorimetric assays for the determination of cell viability in cell proliferation and cytotoxicity assays. Dojindo's highly water-soluble tetrazolium salt, used in CCK-8, is reduced by dehydrogenase activities in cells to give a yellow-color formazan dye, which is soluble in the tissue culture media. The amount of the formazan dye, generated by the activities of dehydrogenases in cells, is directly proportional to the number of living cells. The detection sensitivity of CCK-8 may be higher than the other tetrazolium salts such as MTT, XTT, MTS or WST-1. Cancerous cells in a cell culture were exposed to the either irinotecan, ursodeoxycholic acid, berberine, or NABR01, and the results were recorded. Various concentrations of each molecule were used, resulting in different amount of cell viability. Cell viability was measured according to the procedures of CCK-8, namely higher cell counts lead to higher absorption measurements, which would mean lower drug efficacy.
DLD1 refers to Dukes' type C, colorectal adenocarcinoma, and NABR01 has an IC50 of 5.0 uM for DLD1. HCT2 refers to a hamster lymphoid cell line, and NABR01 has an IC50 of 6.0 uM for HCT2. […] NABR01 has an unexpectedly effective IC50 of less than 10 uM for the cell lines described above, and the related cancers.

KMCH cells [2] = experiment: Western blot analysis of signaling and apoptosis proteins in KMCH cells; type: cell-based; details: for cytochrome C release from mitochondria, western blot: berberine at same concentration as NABR01
Procedure: FIGS. 6-18 is data which illustrates the mechanism of action for NABR01. Once a mechanism of action is known, it may become possible to predict with some level of accuracy the effects a drug may have, though extensive testing would still be required. Until a mechanism is known, it is extremely difficult to predict what a particular molecule or compound may be useful for, if it is even useful at all. A western blot analysis was performed for MAP kinase signaling proteins, phospho p38, phospho JNK and phospho ERK in KMCH cells with and without NABR01 treatment.
The cytotoxic effect of NABR01 in addition to downregulation of Bcl2, may be attributed to an increase in proapoptotic protein Bim which is specifically cleaved to generate the cytotoxic Bims-form in KMCH cells are treated with NABR01. Caspase-9 is cleaved in cells treated with NABR01 indicating an upstream activation of Caspase 3. […] Accordingly, not only does the ursodiol component of NABR01 assist in targeting, but ursodiol also increases efficacy of the compound when introduced directly to the relevant cells, a wholly unexpected effect.
The activity of pro-inflammatory signaling pathway protein phospho STAT may also increase in NABR01 treated cells.

GS-Li013 cells = experiment: CCK-8 cell viability assay in GS-Li013 cells; type: cell-based; details: GS-Li013 (GS-cell lines), 24 hour treatment
Text: as §1, §2

PANC1 = experiment: CCK-8 cell viability assay, PANC1; type: cell-based; details: Homo sapiens, PANC-1, PANC1, 48 hour period
Text: as §2
(§3) DLD1 refers to Dukes' type C, colorectal adenocarcinoma, and NABR01 has an IC50 of 5.0 uM for DLD1. HCT2 refers to a hamster lymphoid cell line, and NABR01 has an IC50 of 6.0 uM for HCT2. […]

MCF7 = experiment: CCK-8 cell viability assay, MCF7; type: cell-based; details: Homo sapiens, MCF7, 48 hour period
Text: as §2, §3

KMCH tumor = experiment: Tumor xenograft study in mice; type: in vivo
Text: Tumor xenografts studies in mice indicate that the tumor growth corresponding to weight and volume in NABR01 treated group of mice was reduced by approximately 45% in size when treated for 21 days.

CCA = experiment: CCK-8 cell viability assay, CCA; type: cell-based; details: 48 hour period
Text: as §2, §3

MDA468 = experiment: CCK-8 cell viability assay, MDA468; type: cell-based; details: MDA468, 48 hour period
Text: as §2, §3

HepG2 = experiment: CCK-8 cell viability assay, HepG2; type: cell-based; details: Homo sapiens, HepG2, 48 hour period
Text: as §2, §3

HuCCT = experiment: CCK-8 cell viability assay, HuCCT; type: cell-based; details: 48 hour period
Text: as §2
(§4) As shown in FIGS. 19-20, the efficacy of NABR01 can vary greatly depending on the cancerous cell line, and as a result, NABR01 may not be effective against certain cell lines. […]

DLD1 = experiment: CCK-8 cell viability assay, DLD1; type: cell-based; details: Homo sapiens, DLD-1, DLD1, 48 hour period
Text: as §2, §3

HCT = experiment: CCK-8 cell viability assay, HCT; type: cell-based; details: 48 hour period
Text: as §2, §3

U2OS = experiment: CCK-8 cell viability assay, U2OS; type: cell-based; details: Homo sapiens, 48 hour period
Text: as §2, §3

HCT2 = experiment: CCK-8 cell viability assay, HCT2; type: cell-based, hamster; details: Mesocricetus auratus, HCT2, 48 hour period
Text: as §2, §3

SJSA = experiment: CCK-8 cell viability assay, SJSA; type: cell-based; details: 48 hour period
Text: as §2, §4

MDA231 = experiment: CCK-8 cell viability assay, MDA231; type: cell-based; details: Homo sapiens, MDA-MB-231, MDA231, 48 hour period
Text: as §2, §4

HT29 = experiment: CCK-8 cell viability assay, HT29; type: cell-based; details: Homo sapiens, HT-29, HT29, 48 hour period
Text: as §2, §3

PC3 = experiment: CCK-8 cell viability assay, PC3; type: cell-based; details: Homo sapiens, PC-3, PC3, 48 hour period
Text: as §2, §4

[3] = KMCH cells, 24 hour treatment, read-out: IC50 (cell viability)

COc1ccc2cc3[n+](cc2c1OC)CCc1cc2c(cc1-3)OCO2 [berberine]
IC50 (KMCH cells [1]; [3]): 200 µM | phospho ERK (cell survival pathway), western blot (KMCH cells [2]; 10 uM): not observed | phospho JNK (cell death signaling pathway), western blot (KMCH cells [2]; 10 uM): not observed | phospho p38 (cell death signaling pathway), western blot (KMCH cells [2]; 10 uM): not observed | cytochrome C release from mitochondria, western blot (KMCH cells [2]): did not result in the release | IC50 (GS-Li013 cells): 200 µM

COc1ccc2cc3[n+](cc2c1OCCCCCCNC(=O)CC[C@@H](C)[C@H]1CC[C@H]2[C@@H]4[C@@H](O)CC5CC(O)CC[C@]5(C)[C@H]4CC[C@]12C)CCc1cc2c(cc1-3)OCO2 (stereo in doubt) [NABR01, berberine-ursodeoxycholic acid conjugate]
IC50 (PANC1): 3.3 µM | IC50 (MCF7): 9.2 µM | IC50 (KMCH cells [1]; [3]): 15 µM | IC50 (KMCH cells [1]; KMCH, 48 hour period, read-out: IC50): 2.9 µM | tumor weight inhibition (KMCH tumor; mice with a KMCH tumor, 4 mg/kg): 43.46% | tumor growth (weight and volume) reduction in size (KMCH tumor; mice, tumor xenografts, treated for 21 days): approximately 45% | IC50 (CCA): 4.8 µM | IC50 (MDA468): 2.1 µM | IC50 (HepG2): 5.4 µM | IC50 (HuCCT): 15 µM | phospho PTEN, western blot (KMCH cells [2]): remain unchanged | pro-apoptotic protein Noxa (KMCH cells [2]): increase | PARP activation by cleavage, western blot (KMCH cells [2]; 10 uM): activated | anti-apoptotic protein Bcl2, western blot (KMCH cells [2]; 10 uM): down regulated | phospho ERK (cell survival pathway), western blot (KMCH cells [2]; 10 uM): downregulated | phospho JNK (cell death signaling pathway), western blot (KMCH cells [2]; 10 uM): increased | phospho p38 (cell death signaling pathway), western blot (KMCH cells [2]; 10 uM): increased | AKT signaling pathway, western blot (KMCH cells [2]; 10 uM, 16 hours): downregulated | phosphor-AKT pathway, western blot (KMCH cells [2]; 10 uM, 16 hours): downregulated | proapoptotic protein Bim (cleaved to Bims-form), western blot (KMCH cells [2]; 10 uM, 24 hours): increase | Caspase-9 cleavage, western blot (KMCH cells [2]; 10 uM, 48 hours): cleaved | Phospho CKH2 (DNA repair), western blot (KMCH cells [2]; 16 hours): increased activity | Total P53 levels, western blot (KMCH cells [2]; 16 hours): downregulated | phospho STAT (pro-inflammatory signaling), western blot (KMCH cells [2]; 16 hours): increase | phosphoATM (DNA repair), western blot (KMCH cells [2]; 16 hours): increased activity | phospho 4EBP1, western blot (KMCH cells [2]; 24 hours): not significantly altered | phospho EF2k, western blot (KMCH cells [2]; 24 hours): not significantly altered | phospho eIF4E, western blot (KMCH cells [2]; 24 hours): not significantly altered | phospho p70S6 kinase, western blot (KMCH cells [2]; 24 hours): not significantly altered | phosphor mTOR 52481 pathway, western blot (KMCH cells [2]; 24 hours): downregulated | cytochrome C release from mitochondria, western blot (KMCH cells [2]): released from mitochondria | Bcl2 protein levels (KMCH cells [2]; by 24hrs of exposure): significant decrease | IC50 (DLD1): 5 µM | IC50 (HCT): 3.9 µM | IC50 (U2OS): 4.3 µM | IC50 (HCT2): 6 µM | IC50 (GS-Li013 cells): 15 µM | IC50 (SJSA): 14 µM | IC50 (MDA231): 36 µM | IC50 (HT29): 5.2 µM | IC50 (PC3): 16 µM

C[C@H](CCC(=O)O)[C@H]1CC[C@H]2[C@@H]3[C@@H](O)C[C@@H]4C[C@H](O)CC[C@]4(C)[C@H]3CC[C@]12C [ursodeoxycholic acid]
IC50 (cell viability) (KMCH cells [1]; KMCH cells, 24 hour treatment): no IC50 | IC50 (cell viability) (GS-Li013 cells): no IC50

CCc1c2c(nc3ccc(OC(=O)N4CCC(N5CCCCC5)CC4)cc13)-c1cc3c(c(=O)n1C2)COC(=O)[C@]3(O)CC [irinotecan]
IC50 (KMCH cells [1]; [3]): 95 µM | IC50 (GS-Li013 cells): 90 µM

— US9597337B2, “Berberine-ursodeoxycholic acid conjugate for treating the liver” (NORTH AMERICAN BIOMEDICAL RESEARCH CENTER USA, INC., priority 2014, dated 2017)
